Measurements reported in PMC5773580, “A synthetic combinatorial approach to disabling deviant Hedgehog signaling” (Scientific Reports, 2018).
Several values for one entry are separate records, joined by “and”; a condition that tells them apart may be missing. Equal values may be shown once.

Experiments:
[1] = tested on: HDAC activity (acetylated tubulin) in NIH-3T3 cells; assay: Acetylation assay, Western blot of acetylated tubulin; format: cell-based; conditions: 48hrs
Procedure: For analyzing acetylation status of histone 3 and tubulin, NIH3T3 cells were grown to confluence in 6-well plates. After 48hrs of treatment with indicated chemicals, cells were lysed in RIPA buffer or 1% NP40/phosphate buffered saline/protease inhibitors (SIGMA, #S8820), the lysate cleared using a microcentrifuge, then 6 × sample loading buffer (Bioland Scientific) added to the supernatant. Proteins were separated on SDS-PAGE (BioRad Criterion TGX Precast Gels). Antibodies used for analyzing the blots were: acetylated tubulin (SIGMA, #T6793), tubulin, acetyl-histone H3 (Lys23), and histone H3 (Cell Signaling Technology, #2125 S, #8848 and #9717, respectively). Chemiluminescence was detected using a Li-COR Odyssey Imaging System.

[2] = target: T1, HDAC3/NCOR2 (Homo sapiens, UniProt O15379); assay: In vitro HDAC profiling (deacetylation assay), HDAC3; format: biochemical; conditions: for HDAC Activity (Fluorescent counts): Repeat1/Repeat 2
T1 construct: purchased BPS Bioscience #50051-11
T1 sequence (O15379 whole entry): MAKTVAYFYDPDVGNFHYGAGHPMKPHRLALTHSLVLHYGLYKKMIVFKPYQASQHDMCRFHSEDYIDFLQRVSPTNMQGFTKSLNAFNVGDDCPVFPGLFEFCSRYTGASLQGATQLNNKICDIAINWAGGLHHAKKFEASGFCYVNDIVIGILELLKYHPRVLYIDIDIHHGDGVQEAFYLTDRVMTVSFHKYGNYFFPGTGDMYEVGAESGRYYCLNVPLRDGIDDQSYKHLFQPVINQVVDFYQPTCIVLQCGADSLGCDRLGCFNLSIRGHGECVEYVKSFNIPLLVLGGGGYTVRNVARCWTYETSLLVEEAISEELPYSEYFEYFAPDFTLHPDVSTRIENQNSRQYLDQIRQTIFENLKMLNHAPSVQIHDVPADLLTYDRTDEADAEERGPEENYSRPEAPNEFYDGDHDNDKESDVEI
T1 sequence (Q9Y618 395-489 partner limits assumed): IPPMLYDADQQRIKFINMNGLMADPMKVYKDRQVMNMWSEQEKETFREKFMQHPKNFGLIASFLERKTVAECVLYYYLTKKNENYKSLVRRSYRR
Procedure: (§1) HDAC profiling was performed at BPS Bioscience (San Diego, CA). All of the compounds are dissolved in DMSO. A series of dilutions of the compounds were prepared with 10% DMSO in HDAC assay buffer (#50031) and 5 µl of the dilution was added to a 50 µl reaction so that the final concentration of DMSO is 1% in all of reactions. All of the enzymatic reactions were conducted in duplicate at 37 °C for 30 mins, except that the enzyme reactions for HDAC11 were at room temperature for 3 hrs. All of the reactions were performed in a 50 µl mixture containing HDAC assay buffer, 5 µg BSA, an HDAC substrate [HDAC Substrate 3 (BPS number 50037) or HDAC Class 2a Substrate 1 (BPS number 50040)], an HDAC enzyme (#50051-11) and a test compound. After enzymatic reactions, 50 μl of HDAC Developer (#50030) was added to each well and the plate was incubated at room temperature for an additional 20 mins. Fluorescence intensity was measured at an excitation of 360 nm and an emission of 460 nm using a Tecan Infinite M1000 microplate reader. HDAC activity assays were performed in duplicates at each concentration. The fluorescent intensity data were analyzed using the computer software, Graphpad Prism. In the absence of the compound, the fluorescent intensity (Ft) in each data set was defined as 100% activity. In the absence of HDAC, the fluorescent intensity (Fb) in each data set was defined as 0% activity. The percent activity in the presence of each compound was calculated according to the following equation: %activity = (F − Fb)/(Ft − Fb), where F = the fluorescent intensity in the presence of the compound. The values of % activity versus a series of compound concentrations were then plotted using non-linear regression analysis of Sigmoidal dose-response curve generated with the equation Y = B + (T − B)/1 + 10((LogIC50 − X) × Hill Slope), where Y = percent activity, B = minimum percent activity, T = maximum percent activity, X = logarithm of compound and Hill Slope = slope factor or Hill coefficient. The IC50 value was determined by the concentration causing a half-maximal percent activity.

[3] = target: T2, HDAC9 (Homo sapiens, UniProt Q9UKV0); assay: In vitro HDAC profiling (deacetylation assay), HDAC9; format: biochemical; conditions: for HDAC Activity (Fluorescent counts): Repeat1/Repeat 2
T2 construct: purchased BPS Bioscience #50051-11
T2 sequence (Q9UKV0 whole entry): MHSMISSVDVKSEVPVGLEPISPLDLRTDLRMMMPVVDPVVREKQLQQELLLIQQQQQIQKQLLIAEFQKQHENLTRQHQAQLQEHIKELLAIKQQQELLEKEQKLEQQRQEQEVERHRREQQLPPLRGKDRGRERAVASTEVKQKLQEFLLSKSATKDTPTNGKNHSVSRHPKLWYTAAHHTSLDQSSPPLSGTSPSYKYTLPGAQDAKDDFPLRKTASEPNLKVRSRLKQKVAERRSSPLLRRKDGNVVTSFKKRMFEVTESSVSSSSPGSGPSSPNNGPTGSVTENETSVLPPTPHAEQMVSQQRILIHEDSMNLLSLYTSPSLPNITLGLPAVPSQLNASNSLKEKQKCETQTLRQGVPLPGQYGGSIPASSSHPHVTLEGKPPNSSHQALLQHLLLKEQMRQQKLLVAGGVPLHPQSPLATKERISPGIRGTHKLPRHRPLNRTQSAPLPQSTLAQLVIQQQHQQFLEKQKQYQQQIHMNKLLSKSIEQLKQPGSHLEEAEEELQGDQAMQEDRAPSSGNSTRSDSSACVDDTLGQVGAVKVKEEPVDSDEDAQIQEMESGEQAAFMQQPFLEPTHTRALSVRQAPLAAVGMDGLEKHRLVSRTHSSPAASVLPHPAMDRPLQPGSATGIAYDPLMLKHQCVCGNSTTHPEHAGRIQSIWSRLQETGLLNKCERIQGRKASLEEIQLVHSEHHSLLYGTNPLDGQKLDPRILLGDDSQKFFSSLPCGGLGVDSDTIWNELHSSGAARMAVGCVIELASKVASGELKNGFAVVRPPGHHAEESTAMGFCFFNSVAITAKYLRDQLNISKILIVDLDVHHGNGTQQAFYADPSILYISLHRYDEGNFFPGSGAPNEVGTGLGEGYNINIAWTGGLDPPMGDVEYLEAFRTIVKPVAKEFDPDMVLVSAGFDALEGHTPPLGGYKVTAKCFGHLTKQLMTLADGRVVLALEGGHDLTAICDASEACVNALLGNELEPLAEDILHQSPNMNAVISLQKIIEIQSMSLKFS
Procedure: as §1

[4] = target: T3, HDAC1 (Homo sapiens, UniProt Q13547); assay: In vitro HDAC profiling (deacetylation assay), HDAC1; format: biochemical; conditions: for HDAC Activity (Fluorescent counts): Repeat1/Repeat 2
T3 construct: purchased BPS Bioscience #50051-11
T3 sequence (Q13547 whole entry): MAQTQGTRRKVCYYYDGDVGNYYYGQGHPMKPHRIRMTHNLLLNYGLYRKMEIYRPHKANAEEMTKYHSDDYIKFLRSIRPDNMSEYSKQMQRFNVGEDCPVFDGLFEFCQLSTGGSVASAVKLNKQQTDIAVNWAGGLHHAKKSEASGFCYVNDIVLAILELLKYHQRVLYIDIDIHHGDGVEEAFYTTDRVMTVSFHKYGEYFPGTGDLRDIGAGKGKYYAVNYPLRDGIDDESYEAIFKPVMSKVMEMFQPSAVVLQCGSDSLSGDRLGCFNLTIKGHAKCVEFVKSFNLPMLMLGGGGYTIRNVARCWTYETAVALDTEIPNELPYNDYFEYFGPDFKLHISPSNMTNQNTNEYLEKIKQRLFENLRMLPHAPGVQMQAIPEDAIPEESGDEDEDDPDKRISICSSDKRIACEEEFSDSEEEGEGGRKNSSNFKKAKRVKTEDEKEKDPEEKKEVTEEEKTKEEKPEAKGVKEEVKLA
Procedure: as §1

[5] = target: T4, HDAC2 (Homo sapiens, UniProt Q92769); assay: In vitro HDAC profiling (deacetylation assay), HDAC2; format: biochemical; conditions: for HDAC Activity (Fluorescent counts): Repeat1/Repeat 2
T4 construct: purchased BPS Bioscience #50051-11
T4 sequence (Q92769 whole entry): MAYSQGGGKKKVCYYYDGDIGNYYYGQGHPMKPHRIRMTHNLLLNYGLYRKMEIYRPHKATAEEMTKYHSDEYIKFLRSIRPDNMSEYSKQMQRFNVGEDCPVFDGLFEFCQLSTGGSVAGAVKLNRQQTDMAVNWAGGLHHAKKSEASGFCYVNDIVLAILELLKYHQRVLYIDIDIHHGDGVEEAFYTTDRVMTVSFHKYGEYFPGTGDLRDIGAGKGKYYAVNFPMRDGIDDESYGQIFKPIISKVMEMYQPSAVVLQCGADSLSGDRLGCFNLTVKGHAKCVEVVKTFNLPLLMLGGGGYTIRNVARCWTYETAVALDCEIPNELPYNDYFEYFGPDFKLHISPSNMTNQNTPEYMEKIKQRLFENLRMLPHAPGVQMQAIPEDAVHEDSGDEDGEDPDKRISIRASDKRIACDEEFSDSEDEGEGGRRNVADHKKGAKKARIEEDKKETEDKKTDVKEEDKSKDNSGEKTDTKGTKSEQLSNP
Procedure: as §1

[6] = tested on: SMO-M2 in NIH3T3 (GLI-BS reporter); assay: GLI-BS reporter assay, NIH3T3 cells with SMO-M2 DNA; format: cell-based; conditions: Mus musculus
Procedure: The HH-responsive firefly luciferase reporter (GLI-BS) and a control Renilla luciferase reporter (SV40-RL) were transfected into indicated cell lines using Effectene (Qiagen) either alone or with indicated DNAs. 24 hrs after transfection, cells were switched to low serum media (3% calf serum), and grown for another 48 hrs. in 5% CO2 in the presence/absence of compounds. 3T3-ShhFL cell line that stably expressing SHH and the two reporters were cultured in a similar fashion. FL and RL activities in lysate generated using Passive Lysis Buffer (Promega) were then assessed using the Dual-Luciferase kit (Promega) and a 96-well plate reading luminometer (BMG). The ratio of FL/RL was calculated and the averaged ratios from three replicates were reported.

[7] = in vitro deacetylation assay, duplicates

## O=C(CCCCCCC(=O)Nc1ccc(Cl)c(C(=O)Nc2ccc(NC(=O)c3cc(Cl)ccc3Cl)cc2)c1)NO [IHR-SAHA]
[1]
  HDAC inhibitory activity, acetylated tubulin accumulation (ratio to total tubulin), compared with SAHA: increase in anti-HDAC activity
[2]; HDAC3/NCOR2, WW01 0 Log nM
  HDAC Activity (Fluorescent counts): 24959 Fluorescent counts and 25571 Fluorescent counts
[2]; HDAC3/NCOR2, WW01 0.5 Log nM
  HDAC Activity (Fluorescent counts): 24611 Fluorescent counts and 25823 Fluorescent counts
[2]; HDAC3/NCOR2, WW01 1 Log nM
  HDAC Activity (Fluorescent counts): 23771 Fluorescent counts and 23666 Fluorescent counts
[2]; HDAC3/NCOR2, WW01 1.5 Log nM
  HDAC Activity (Fluorescent counts): 20712 Fluorescent counts and 23164 Fluorescent counts
[2]; HDAC3/NCOR2, WW01 2 Log nM
  HDAC Activity (Fluorescent counts): 15438 Fluorescent counts and 15968 Fluorescent counts
[2]; HDAC3/NCOR2, WW01 2.5 Log nM
  HDAC Activity (Fluorescent counts): 10185 Fluorescent counts and 10772 Fluorescent counts
[2]; HDAC3/NCOR2, WW01 3 Log nM
  HDAC Activity (Fluorescent counts): 6354 Fluorescent counts and 6385 Fluorescent counts
[2]; HDAC3/NCOR2, WW01 3.5 Log nM
  HDAC Activity (Fluorescent counts): 4726 Fluorescent counts and 4835 Fluorescent counts
[2]; HDAC3/NCOR2, WW01 4 Log nM
  HDAC Activity (Fluorescent counts): 3849 Fluorescent counts and 3671 Fluorescent counts
[2]; HDAC3/NCOR2, WW01 -0.5 Log nM
  HDAC Activity (Fluorescent counts): 25301 Fluorescent counts and 26608 Fluorescent counts
[2]; [7]
  IC50: 188 nM
[3]; HDAC9, WW01 0 Log nM
  HDAC Activity (Fluorescent counts): 15707 Fluorescent counts and 17505 Fluorescent counts
[3]; HDAC9, WW01 0.5 Log nM
  HDAC Activity (Fluorescent counts): 15735 Fluorescent counts and 16677 Fluorescent counts
[3]; HDAC9, WW01 1 Log nM
  HDAC Activity (Fluorescent counts): 15823 Fluorescent counts and 16968 Fluorescent counts
[3]; HDAC9, WW01 1.5 Log nM
  HDAC Activity (Fluorescent counts): 15598 Fluorescent counts and 16390 Fluorescent counts
[3]; HDAC9, WW01 2 Log nM
  HDAC Activity (Fluorescent counts): 15941 Fluorescent counts and 16116 Fluorescent counts
[3]; HDAC9, WW01 2.5 Log nM
  HDAC Activity (Fluorescent counts): 14685 Fluorescent counts and 15111 Fluorescent counts
[3]; HDAC9, WW01 3 Log nM
  HDAC Activity (Fluorescent counts): 14898 Fluorescent counts and 14972 Fluorescent counts
[3]; HDAC9, WW01 3.5 Log nM
  HDAC Activity (Fluorescent counts): 13364 Fluorescent counts and 15040 Fluorescent counts
[3]; HDAC9, WW01 4 Log nM
  HDAC Activity (Fluorescent counts): 14972 Fluorescent counts and 13303 Fluorescent counts
[3]; HDAC9, WW01 -0.5 Log nM
  HDAC Activity (Fluorescent counts): 15619 Fluorescent counts and 16563 Fluorescent counts
[3]; [7]
  IC50: > 10000 nM
[4]; HDAC1, WW01 0 Log nM
  HDAC Activity (Fluorescent counts): 31058 Fluorescent counts and 32831 Fluorescent counts
[4]; HDAC1, WW01 0.5 Log nM
  HDAC Activity (Fluorescent counts): 31900 Fluorescent counts and 30926 Fluorescent counts
[4]; HDAC1, WW01 1 Log nM
  HDAC Activity (Fluorescent counts): 29505 Fluorescent counts and 28223 Fluorescent counts
[4]; HDAC1, WW01 1.5 Log nM
  HDAC Activity (Fluorescent counts): 27089 Fluorescent counts and 26820 Fluorescent counts
[4]; HDAC1, WW01 2 Log nM
  HDAC Activity (Fluorescent counts): 21883 Fluorescent counts and 21225 Fluorescent counts
[4]; HDAC1, WW01 2.5 Log nM
  HDAC Activity (Fluorescent counts): 19997 Fluorescent counts and 14409 Fluorescent counts
[4]; HDAC1, WW01 3 Log nM
  HDAC Activity (Fluorescent counts): 9008 Fluorescent counts and 8923 Fluorescent counts
[4]; HDAC1, WW01 3.5 Log nM
  HDAC Activity (Fluorescent counts): 7360 Fluorescent counts and 7292 Fluorescent counts
[4]; HDAC1, WW01 4 Log nM
  HDAC Activity (Fluorescent counts): 6195 Fluorescent counts and 6043 Fluorescent counts
[4]; HDAC1, WW01 -0.5 Log nM
  HDAC Activity (Fluorescent counts): 31660 Fluorescent counts and 32681 Fluorescent counts
[4]; [7]
  IC50: 285 nM
[5]; HDAC2, WW01 0 Log nM
  HDAC Activity (Fluorescent counts): 25941 Fluorescent counts and 27493 Fluorescent counts
[5]; HDAC2, WW01 0.5 Log nM
  HDAC Activity (Fluorescent counts): 25227 Fluorescent counts and 26727 Fluorescent counts
[5]; HDAC2, WW01 1 Log nM
  HDAC Activity (Fluorescent counts): 25275 Fluorescent counts and 25129 Fluorescent counts
[5]; HDAC2, WW01 1.5 Log nM
  HDAC Activity (Fluorescent counts): 23536 Fluorescent counts and 23240 Fluorescent counts
[5]; HDAC2, WW01 2 Log nM
  HDAC Activity (Fluorescent counts): 22337 Fluorescent counts and 21686 Fluorescent counts
[5]; HDAC2, WW01 2.5 Log nM
  HDAC Activity (Fluorescent counts): 18050 Fluorescent counts and 16002 Fluorescent counts
[5]; HDAC2, WW01 3 Log nM
  HDAC Activity (Fluorescent counts): 12392 Fluorescent counts and 11718 Fluorescent counts
[5]; HDAC2, WW01 3.5 Log nM
  HDAC Activity (Fluorescent counts): 9603 Fluorescent counts and 9800 Fluorescent counts
[5]; HDAC2, WW01 4 Log nM
  HDAC Activity (Fluorescent counts): 7673 Fluorescent counts and 7404 Fluorescent counts
[5]; HDAC2, WW01 -0.5 Log nM
  HDAC Activity (Fluorescent counts): 26601 Fluorescent counts and 28049 Fluorescent counts
[5]; [7]
  IC50: 746 nM
[6]
  IC50: 80 nM
